Experimental findings from article PMC10528299, “Targeting FAK/PYK2 with SJP1602 for Anti-Tumor Activity in Triple-Negative Breast Cancer” (Current Issues in Molecular Biology, 2023) are described below.

The target in data set [1] is T1, FAK [pY397] in HCC70 cells (Homo sapiens, UniProt Q05397).
T1 construct: endogenous in cells; host or cells: HCC70
The data set is described as follows: FAK [pY397] ELISA in HCC70 cells. The settings on record: HCC70, 1 h treatment, mean ± SEM (n = 3); read-out: IC50 FAK phosphorylation (pY397 ELISA). Type of data set: cell-based. As for the experimental part:
TNBC cells were seeded into 60 mm dishes at a density of 1 × 10^6 cells/dish in 5 mL of culture media. After 24 h, cells were treated with concentrations ranging from 1 nM to 10 μM of SJP1602 for 1 h, and cell lysates were prepared to detect phospho-FAK levels. The FAK [pY397] enzyme-linked immunosorbent assay was performed according to the manufacturer’s instructions. The absorbance at 450 nm was measured to quantify the results.
Background: In an ELISA, binding on a coated surface is turned into a signal by an enzyme label.

A short description of data set [2]: Cytotoxicity on normal cell line FDF. Type of data set: cell-based. The settings on record: FDF cells (normal cell line); read-out: Cytotoxicity on Normal Cell Lines IC50.
A short description of data set [3]: Pharmacokinetics in SD rats. Type of data set: in vivo, rat. As for the experimental part: The pharmacokinetics (PK) study was conducted in male SD rats. Three rats received a single-dose intravenous injection of SJP1602 at 5 mg/kg, and another set of three rats received a single-dose oral administration of SJP1602 at 20 mg/kg. The vehicle composition used was DMA 3% and Cremophor ELP 4%. Blood drug concentrations over time were determined by drawing blood after 0.17, 0.5, 1, 2, 4, 6, and 24 h. Plasma was isolated using K3EDTA anticoagulation tubes, and the drug concentration in the plasma was analyzed by LC/MS/MS (Waters, MA, USA). To analyze the concentration of pretreated rat plasma samples, a Waters Acquity ultra-performance liquid chromatography system (UPLC, Waters) was employed, in tandem with a C18 column (Acquity UPLC® BEH C18 1.7 μm, 2.1 × 50 mm). The mass spectrometry analysis was conducted using the Waters Xevo-TQ-S micro. For the mobile phases, phase A consisted of distilled water with 0.1% formic acid, while phase B comprised methanol, also with 0.1% formic acid. PK parameters were subsequently derived using WinNonlin software (version 2.1), which enabled the determination of AUC (ng×h/mL), Cmax (ng/mL), and bioavailability (BA). The area under the drug concentration curve (AUC) was calculated utilizing the trapezoidal rule, focusing on the time interval AUC0–24h.

For the next data set, the target named is T2, Insulin Receptor (InsR) (Homo sapiens, UniProt P06213).
T2 construct: purchased Promega V3901
T2 sequence (P06213 28-1382): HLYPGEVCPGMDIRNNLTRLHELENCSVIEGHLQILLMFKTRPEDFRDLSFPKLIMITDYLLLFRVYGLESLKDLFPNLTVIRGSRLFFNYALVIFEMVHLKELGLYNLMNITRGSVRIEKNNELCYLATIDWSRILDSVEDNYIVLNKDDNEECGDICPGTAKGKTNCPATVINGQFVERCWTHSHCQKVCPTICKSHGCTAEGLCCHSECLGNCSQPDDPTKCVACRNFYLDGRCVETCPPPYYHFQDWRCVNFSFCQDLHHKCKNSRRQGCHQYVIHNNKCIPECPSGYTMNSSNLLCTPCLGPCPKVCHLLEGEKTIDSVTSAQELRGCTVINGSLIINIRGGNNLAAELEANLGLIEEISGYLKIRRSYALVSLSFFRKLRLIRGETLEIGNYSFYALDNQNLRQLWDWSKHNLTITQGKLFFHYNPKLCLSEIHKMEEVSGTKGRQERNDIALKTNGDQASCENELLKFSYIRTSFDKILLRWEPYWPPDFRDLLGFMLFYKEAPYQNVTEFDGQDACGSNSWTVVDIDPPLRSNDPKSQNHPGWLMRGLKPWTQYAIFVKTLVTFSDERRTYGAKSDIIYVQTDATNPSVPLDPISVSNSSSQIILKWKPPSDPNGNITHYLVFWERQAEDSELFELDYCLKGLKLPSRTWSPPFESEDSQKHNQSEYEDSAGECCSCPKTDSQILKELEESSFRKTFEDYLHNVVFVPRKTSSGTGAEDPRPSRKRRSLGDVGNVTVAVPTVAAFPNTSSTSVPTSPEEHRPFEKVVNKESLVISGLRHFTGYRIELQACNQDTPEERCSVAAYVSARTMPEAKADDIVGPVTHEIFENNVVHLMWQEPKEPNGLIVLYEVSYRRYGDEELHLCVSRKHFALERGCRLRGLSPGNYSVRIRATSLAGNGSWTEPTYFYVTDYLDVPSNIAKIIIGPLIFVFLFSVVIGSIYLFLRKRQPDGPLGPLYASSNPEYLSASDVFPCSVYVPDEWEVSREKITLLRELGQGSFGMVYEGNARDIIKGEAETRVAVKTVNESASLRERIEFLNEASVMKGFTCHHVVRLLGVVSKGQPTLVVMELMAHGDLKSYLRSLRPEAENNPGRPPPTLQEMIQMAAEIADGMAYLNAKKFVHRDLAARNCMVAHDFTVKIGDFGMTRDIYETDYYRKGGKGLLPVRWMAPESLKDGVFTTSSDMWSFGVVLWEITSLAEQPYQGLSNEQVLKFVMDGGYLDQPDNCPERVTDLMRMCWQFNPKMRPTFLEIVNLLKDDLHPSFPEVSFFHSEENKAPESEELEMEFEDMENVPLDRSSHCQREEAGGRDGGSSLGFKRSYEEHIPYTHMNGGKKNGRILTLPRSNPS
The data set is described as follows: ADP-Glo kinase assay InsR. Type of data set: biochemical. The settings on record: mean ± SEM (n = 3). As for the experimental part:
The kinase assays were performed and quantified according to the manufacturer’s instructions using the ADP-Glo™ Kinase Assay Kit for FAK (Promega, V1971), PYK2 (Promega, V4083) and InsR (Promega, V3901). Each kinase reaction mixture was prepared to contain the compounds of interest. After thorough pipetting, 25 μL of the mixture was added to each well and incubated for 1 h at room temperature. Subsequently, 25 μL of ADP-Glo reagent was added, followed by a 40 m incubation at room temperature. Next, 50 μL of the kinase detection reagent was added, and the mixture was incubated for an additional 30 m at room temperature. Luminescence was measured using the Tecan Spark 10M (Integration time: 1 s) (Männedorf, Switzerland).
In general terms: In ADP-Glo the light output rises with the ADP produced.

Where [4] appears, read: male, SD, rat, plasma, po, 20 mg/kg, po 20 mg/kg, male SD rats.
The mark [5] stands for this setting: rat, plasma, iv 5 mg/kg, male SD rats.
Where [6] appears, read: rat, plasma, po 20 mg/kg, male SD rats.

T1 sequence (Q05397 whole entry): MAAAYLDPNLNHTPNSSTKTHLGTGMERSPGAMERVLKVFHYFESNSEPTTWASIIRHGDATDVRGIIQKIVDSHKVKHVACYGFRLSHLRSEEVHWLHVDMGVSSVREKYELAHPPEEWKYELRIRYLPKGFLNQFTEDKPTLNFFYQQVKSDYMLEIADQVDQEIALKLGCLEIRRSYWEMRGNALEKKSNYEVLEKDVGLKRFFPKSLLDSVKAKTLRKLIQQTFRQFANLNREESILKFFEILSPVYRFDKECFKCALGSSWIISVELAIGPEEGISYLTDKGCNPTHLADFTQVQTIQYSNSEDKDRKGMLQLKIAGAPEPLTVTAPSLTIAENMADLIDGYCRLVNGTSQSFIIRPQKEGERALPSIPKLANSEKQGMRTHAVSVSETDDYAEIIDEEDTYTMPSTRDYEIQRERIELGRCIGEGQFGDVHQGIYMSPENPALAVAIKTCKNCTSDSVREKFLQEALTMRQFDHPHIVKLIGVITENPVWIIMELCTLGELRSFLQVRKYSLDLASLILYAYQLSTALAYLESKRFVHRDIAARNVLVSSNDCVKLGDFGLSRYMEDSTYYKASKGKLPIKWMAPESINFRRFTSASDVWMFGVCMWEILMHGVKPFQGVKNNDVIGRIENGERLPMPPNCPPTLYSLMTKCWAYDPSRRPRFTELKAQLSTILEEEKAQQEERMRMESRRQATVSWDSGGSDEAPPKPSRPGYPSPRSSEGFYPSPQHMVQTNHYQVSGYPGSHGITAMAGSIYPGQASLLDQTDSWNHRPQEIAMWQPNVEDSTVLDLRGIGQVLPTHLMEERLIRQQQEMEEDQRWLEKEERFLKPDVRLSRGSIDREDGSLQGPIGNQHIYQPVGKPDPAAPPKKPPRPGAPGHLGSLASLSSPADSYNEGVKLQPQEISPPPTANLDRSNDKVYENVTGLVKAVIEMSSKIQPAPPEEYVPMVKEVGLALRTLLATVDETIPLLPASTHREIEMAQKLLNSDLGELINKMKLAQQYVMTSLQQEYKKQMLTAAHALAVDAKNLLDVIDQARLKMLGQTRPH

By IC50 is commonly meant the concentration at which inhibition is half-maximal. One may read the half-life as the time needed for the level to fall by half in the phase considered. For orientation: bioavailability means the share of a dose that reaches the circulation, judged against a reference dose that is usually intravenous. The low end stands for poor availability, the high end for good availability. What is called AUC is concentration integrated over time. By AUC(0-t) is commonly meant exposure summed from dosing to a finite time, without extrapolation to infinity. A lower AUC(0-t) goes with less exposure. For orientation: Cmax means the highest concentration seen after dosing. Broadly, the Tmax is the time from dosing to the highest level. Take `CNC(=O)c1cccc(C)c1Nc1nc(Nc2ccc(N3CCN(C4C5CC6CC4CC(O)(C6)C5)CC3)cc2OC)ncc1C(F)(F)F` (stereo not drawn) [SJP1602, 2-((2-((4-(4-((2s,5r)-5-hydroxyadamantan-2-yl)piperazin-1-yl)-2-methoxyphenyl)amino)-5-(trifluoromethyl)pyrimidin-4-yl)amino)-N,3-dimethylbenzamide]: the figures for the half-inhibitory concentration (IC50) (in data set [1]; in data set [2]; on Insulin Receptor (InsR)) were 0.083 ± 0.017 µM, over 10 µM and 1.17 ± 0.0601 µM, respectively. Moreover, the half-life in data set [3] (male, SD, rat, plasma, iv, 5 mg/kg, iv 5 mg/kg, male SD rats) is 0.93 ± 0.25 h; in data set [3] (setting [4]) it was 2.2 h. Moreover, the bioavailability in data set [3] (setting [4]) came to 45%. Besides, in data set [3] (male, SD, rat, plasma, single oral dose 20 mg/kg, rats, read-out: area under the curve (AUC)), the AUC stood at 22 µM·h. In data set [3] (po 20 mg/kg, male SD rats, 20 mg/kg), the T1/2 was 2.24 ± 0.19 h. For the same compound, the AUC(0-t) in data set [3] (setting [5]) was 7070 ng·h/mL; in data set [3] (setting [6]) it was 14700 ng·h/mL. Also, the Cmax was 3890 ng/mL in data set [3] (setting [5]) and 3270 ng/mL in data set [3] (setting [6]). In addition, the Tmax is 0.28 h in data set [3] (setting [5]) and 1 h in data set [3] (setting [6]). The peak concentration in data set [3] (single oral dose 20 mg/kg, rats) was found to be 4.9 µmol/L.
